This note sets out measurements from ChEMBL document CHEMBL5154649, “Design, synthesis, and characterization of novel aminoalcohol quinolines with strong in vitro antimalarial activity” (Eur J Med Chem, 2022).

Active and inactive are the calls of the source. No cut-off for these calls is given here.

Series [1] deals with Plasmodium falciparum. Nature of the series: Antiplasmodial activity against CQ-resistant Plasmodium falciparum W2 assessed as inhibition of parasite growth measured after 48 hrs by SYBR Green 1 dye based fluorescence assay. It is filed as functional, organism-based. To be noted: W2, 48 h.
Series [2] is described as follows: Metabolic stability in mouse liver microsomes assessed as intrinsic clearance at 0.5 uM incubated for 30 mins by LC-MS/MS analysis. Type of series: ADME, Microsome. Particulars: read-out: CLH. For orientation: Liver microsomes are a subcellular fraction often used to study metabolism.
In series [3] the test system is Plasmodium falciparum. The series is described as follows: Antiplasmodial activity CQ-resistant Plasmodium falciparum W2 infected in human erythrocytes assessed as inhibition of parasite growth measured after 72 hrs by HRP2-ELISA. Type of series: functional, organism-based. Particulars: W2, Erythrocyte. On the technique in general: An ELISA detects its analyte on a solid surface through an enzyme-linked reagent.

Series [4] in a line: Apparent permeability across apical to basolateral side in human Caco-2/TC7 cells assessed as drug recovery at 20 uM incubated for 2 hrs by LC-MS/MS analysis. Type of series: ADME, cell-based, Caco2/TC7. To be noted: read-out: Drug recovery.
A short description of series [5]: Metabolic stability in human liver microsomes assessed as intrinsic clearance at 0.5 uM incubated for 30 mins by LC-MS/MS analysis. Particulars: read-out: CLH. It is filed as ADME, Microsome.
Series [6] is described as follows: Metabolic stability in rat liver microsomes assessed as intrinsic clearance at 0.5 uM incubated for 30 mins by LC-MS/MS analysis. Type of series: ADME, Microsome. To be noted: read-out: CLH.
The nature of series [7]: Metabolic stability in human hepatocytes assessed as intrinsic clearance incubated up to 24 hrs measured per 10^6 cells by LC-MS/MS analysis. Type of series: ADME, cell-based, Hepatocyte.
The test system of series [8] is Plasmodium falciparum. The series is described as follows: Antiplasmodial activity against CQ-susceptible Plasmodium falciparum 3D7 infected in human erythrocytes assessed as inhibition of parasite growth measured after 72 hrs by HRP2-ELISA. It is filed as functional, organism-based. Particulars: 3D7, Erythrocyte.
Series [9] in a line: Apparent permeability across apical to basolateral side in human Caco-2/TC7 cells at 20 uM incubated for 2 hrs by LC-MS/MS analysis. It is filed as ADME, cell-based, Caco2/TC7. On the technique in general: Caco-2 cells form a polarised layer with tight junctions and transporters.
Series [10] concerns Plasmodium berghei. The series is described as follows: Antimalarial activity against Plasmodium berghei ANKA infected in BALB/c mouse assessed as time required for clearance of blood parasites at 9 mg/kg, ip administered daily for 5 days. Particulars: time 5 day. Type of series: functional.
The target of series [11] is Voltage-gated inwardly rectifying potassium channel KCNH2 (Homo sapiens, UniProt Q12809). The series is described as follows: Inhibition of hERG channel expressed in CHO cells at holding potential of -80 mV by whole cell patch clamp method. Type of series: toxicity, cell-based.
Sequence of Voltage-gated inwardly rectifying potassium channel KCNH2 (Q12809 whole entry): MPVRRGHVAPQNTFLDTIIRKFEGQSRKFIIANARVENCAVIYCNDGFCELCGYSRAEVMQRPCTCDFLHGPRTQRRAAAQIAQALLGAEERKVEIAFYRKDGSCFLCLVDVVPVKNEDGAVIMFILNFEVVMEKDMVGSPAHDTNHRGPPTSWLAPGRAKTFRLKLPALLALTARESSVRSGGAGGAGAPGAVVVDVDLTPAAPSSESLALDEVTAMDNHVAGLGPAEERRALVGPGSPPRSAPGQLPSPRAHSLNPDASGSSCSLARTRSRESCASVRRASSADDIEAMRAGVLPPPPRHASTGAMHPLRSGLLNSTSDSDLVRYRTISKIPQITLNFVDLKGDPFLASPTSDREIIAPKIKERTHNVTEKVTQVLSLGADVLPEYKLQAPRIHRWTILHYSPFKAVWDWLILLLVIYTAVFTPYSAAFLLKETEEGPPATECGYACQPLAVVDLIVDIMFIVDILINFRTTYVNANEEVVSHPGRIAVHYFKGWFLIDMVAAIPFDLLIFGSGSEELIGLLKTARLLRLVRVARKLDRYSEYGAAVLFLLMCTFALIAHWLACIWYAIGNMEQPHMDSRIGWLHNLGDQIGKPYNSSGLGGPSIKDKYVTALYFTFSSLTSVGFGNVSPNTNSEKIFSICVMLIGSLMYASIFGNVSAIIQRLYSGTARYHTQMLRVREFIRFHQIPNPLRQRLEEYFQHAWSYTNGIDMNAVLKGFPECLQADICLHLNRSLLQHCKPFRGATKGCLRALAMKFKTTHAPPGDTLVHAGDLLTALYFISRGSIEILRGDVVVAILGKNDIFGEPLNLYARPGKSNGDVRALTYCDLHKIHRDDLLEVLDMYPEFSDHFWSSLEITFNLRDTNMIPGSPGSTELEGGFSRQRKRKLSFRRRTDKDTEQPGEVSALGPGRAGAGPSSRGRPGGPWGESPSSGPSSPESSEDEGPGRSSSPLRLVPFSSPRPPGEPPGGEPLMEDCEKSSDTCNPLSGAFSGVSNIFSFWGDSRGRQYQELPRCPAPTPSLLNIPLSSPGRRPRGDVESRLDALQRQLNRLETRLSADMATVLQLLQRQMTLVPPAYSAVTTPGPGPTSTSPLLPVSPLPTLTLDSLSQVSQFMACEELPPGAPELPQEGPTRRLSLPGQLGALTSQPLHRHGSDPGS
Series [12] concerns Plasmodium berghei. The series is described as follows: Antimalarial activity against Plasmodium berghei ANKA infected in BALB/c mouse assessed as increase in animal survival rate at 9 mg/kg, ip administered daily for 5 days and measured for 30 days. It is filed as functional, organism-based. Particulars: time 30.0 day.

For orientation: IC50 means the concentration that inhibits the measured activity by half. One may read the Papp A→B as how fast a substance crosses the layer from the apical side. As to `O[C@@H](c1cc(C(F)(F)F)nc2c(C(F)(F)F)cccc12)[C@H]1CCCCN1` [(S,R)-MEFLOQUINE], the half-inhibitory concentration (IC50) in [1] came to 0.0318 µM; in series [3], 0.0283 µM; in [8] it was 0.0541 µM. Also, the microsomal CLint at 0.5 µM in series [2], in series [5] and in [6] was below 20 µL/min/mg each time. Also, the recovery at 2 h, 20 µM in series [4] stood at 91%. In addition, the CLH in series [7] turned out to be 0.002 mL/h. The apparent permeability from apical to basolateral (Papp A→B) at 2 h, 20 µM in [9] was found to be 4.5 ×10⁻⁶ cm/s.

Take `Cl.O[C@@H](c1cc(C(F)(F)F)nc2c(C(F)(F)F)cccc12)[C@H]1CCCCN1` (relative stereo): in series [10], the Time was below 100 h.

For `CCCCCCCNC[C@@H](O)c1cc(C(F)(F)F)nc2c(C(F)(F)F)cccc12`, the recovery at 2 h, 20 µM in series [4] worked out at 65%. 7 µM corresponded to half-maximal inhibition in [11] (IC50). In addition, the apparent permeability from apical to basolateral (Papp A→B) at 2 h, 20 µM in [9] was 5.3 ×10⁻⁶ cm/s.

As to `CCCCCNC[C@H](O)c1cc(C(F)(F)F)nc2c(C(F)(F)F)cccc12`, the recovery at 2 h, 20 µM in [4] was 86%. In addition, half-maximal inhibition in [11] (IC50) required 5.6 µM. For the same molecule, the Papp A→B at 2 h, 20 µM in series [9] is 3.7 ×10⁻⁶ cm/s.

In the case of `O[C@H](c1cc(C(F)(F)F)nc2c(C(F)(F)F)cccc12)[C@@H]1CCCCN1` [(R,S)-MEFLOQUINE], the microsomal CLint at 0.5 µM in [2], in series [5] and in series [6] was below 20 µL/min/mg each time. Moreover, the recovery at 2 h, 20 µM in series [4] was determined as 85%. For the same molecule, in [7], the CLH amounted to 0.004 mL/h. The apical-to-basolateral permeability (Papp A→B) at 2 h, 20 µM in [9] turned out to be 4.5 ×10⁻⁶ cm/s.

In the case of `O[C@@H](c1cc(C(F)(F)F)nc2c(C(F)(F)F)cccc12)[C@H]1CCCCN1` (relative stereo), in series [12], the result was Active.
